Laboratory results as given in PMC8456958, “Selective Bacterial Targeting and Infection‐Triggered Release of Antibiotic Colistin Conjugates” (Angewandte Chemie (International Ed. in English), 2021).
In brackets after ≈: the same amount, converted by molar mass. Positions of bridges follow the written chain, without caps; N, C: chain ends. Non-standard residues stand in square brackets, D forms with d. Residues, ends and D or L forms follow the SMILES beside them. *: point of attachment. Heptanoyl(6-Me) = CC(C)CCCCC(=O)*; Dab = NCC[C@H](N)C(=O)O

Experiments:
E. coli DSM 1116 = assay type: cell-based, Escherichia coli; conditions: Table 1; without elastase; broth dilution, T-medium, 5-6 x 10^5 CFU, 37 °C, OD600 readout
Method: min at rt, and blood smears were prepared on microscopy slides that were air-dried in the dark. Phase contrast and fluorescence (485/520 nm) microscopy pictures were captured with a Zeiss Axiovert with a 40× APO 1.4 lens. For quantification of fluorescence, pictures were analyzed by using ImageJ (v1.52).
Outlines were drawn around each cell and circularity, area and mean fluorescence were determined.
In addition, several background readings were taken at empty areas. Total corrected cellular fluorescence (TCCF) = integrated density – (area of selected cell × mean fluorescence of background readings), was calculated for 200 bacteria for each assay.
Determination of antibacterial activities by broth dilution assay […]
External neutrophil elastase was added at 10 mU/ml or 100 mU/ml to each well at the start of incubation, where indicated. […] OD600 was then determined in a microplate reader. […]
Quantification of 1, 6 and 7
To 50 µl samples 50 µl acetic acid were added and the samples were filtered through 10 kDa ultrafiltration columns (Amicon Ultra 0.5 ml, Millipore) by centrifugation for 60 min at 14.000 x g and 4 °C. […] Colistin was quantified on a Q-Trap 6500 HPLC-MS with samples of 5 µl each as described above. […]

E. coli K12 = assay: Infection assay in human plasma (CFU test, PMN/E. coli co-culture); assay type: cell-based, Escherichia coli; conditions: 10 μM, human blood plasma, bacteria:PMN 16:1, 1 h, 37 °C
Method: Figure 5 Cellular proof of concept for triggered antibiotic release from 6. a) Release of neutrophil elastase (NE) from neutrophil granulocytes. PMN were isolated and suspended in RPMI 1640. For activation, 0.1 μM fMLP was added. The samples were incubated for 1 h at 37 °C, centrifuged to remove cells, and the NE concentration was determined in the supernatant by ELISA. Values normalized to 1×10^6 cells mL^−1. Data are presented as the mean of 4 separate experiments. *p<0.03 compared to unactivated. b) Activity of NE after co‐cultivation of PMN with E. coli K12 in presence of 1 or 6. […] After 1 h colistin concentrations were determined by HPLC–MS. […]
Calculation of results: All samples and standards were measured in duplicate. The standard curve was constructed by plotting the mean absorbance for each standard on the y-axis against the concentration on the x-axis. A linear regression analysis was performed and the results for the samples were calculated. […]
on. […] The plate was incubated in a microplate reader for 60 min at 37 °C with shaking for 5 sec at 50 rpm once per minute.
Every minute readings were taken at 410 nm. For the calculation of the cleavage velocity, the difference in absorbance after an initialization phase at 15 min and a further incubation time of 30 min was used and related to total cleavage of the substrate. The blank was subtracted from the readings. […]

CC(C)CCCCC(=O)N[C@@H](CCN)C(=O)N[C@H](C(=O)N[C@@H](CCN)C(=O)N[C@H]1CCNC(=O)[C@H]([C@@H](C)O)NC(=O)[C@H](CCN)NC(=O)[C@H](CCN)NC(=O)[C@H](CC(C)C)NC(=O)[C@@H](CC(C)C)NC(=O)[C@H](CCN)NC1=O)[C@@H](C)O [Compound 1, colistin B, reference compound] ({Heptanoyl(6-Me)}-[Dab]T[Dab][Dab][Dab][dL]L[Dab][Dab]T; lactam 4-C)
MIC, E. coli DSM 1116 (E. coli DSM 1116): 0.063 µM (≈ 0.0728 µg/mL)
effect on bacterial growth (E. coli K12): abolished growth completely
